What was measured:
Type in all cases: in vivo, C57BL6 mice
[1] = tested on: intestinal microbiota of HFD mice; assay: Abundance of bacterial species of intestinal microbiota in faeces (shotgun metagenomic/metatranscriptomic sequencing)
Description: Eight-week-old male C57BL6 mice weighing approximately 25 g were fed either a standard diet (SD), high fat diet (HFD) or HFD+CORM-401 for 14 weeks (n=9-10 per group). CORM-401 was prepared freshly in phosphate buffer solution (PBS) and administered orally to mice three times a week each time at a dose of (30 mg/kg=90 μmoles/kg) during the entire HFD regime. Faeces from the three groups of mice were then collected after the 14 week HFD regime for microbiota analysis before mice were sacrificed.
The stool samples DNA and RNA (n=3 per group) were extracted and the sequencing was carried out by a shotgun metagenomic/metatranscriptomic technique as previously described. Briefly, a pre-extraction step combining mechanical, enzymatic and chemical procedures was performed prior to extraction by means of a QIAsymphony PowerFecal Pro DNA Kit (QIAGEN). The extracts were used for DNA/RNA library preparation and determination of pair-end sequences using a NextSeq500 Instrument (Illumina). Fastq files were analysed by an in-house software MetaMIC (v2.2.0). The data were filtered based on quality (phred score) and the sequences were mapped against several custom databases, counted and collected in a separate Fastq file. Sequence counts were made for each bacterial species and compared to the environmental control. The number of sequences for each species was used to determine their relative abundance in each group of mice. • b) Results

[2] = CO accumulation in intestinal tissues after oral administration (hemoCD1 quantification); settings: oral 30 mg/kg
Description: Eight-week-old male C57BL6 mice weighing approximately 25 g were treated with an oral administration of either CORM-401 (30 mg/kg) or PBS (control group) and then sacrificed after 1, 3, 6, 24 and 48 hours (n=6 per time point). Organs were collected to determine the levels of CO accumulation in different intestinal tissues following the two treatments. The body compartments where the intestinal microbiota is most likely to be present such as the caecum, caecum content, colon and faeces were analyzed. CO accumulation was quantified using the CO sensitive scavenger hemoCD1 as previously reported by the inventors such as in Mao et al, 2021 [10]; Minegishi et al, 2017 [11]. Briefly, fifty milligrams of tissue were homogenized in 0.5 ml PBS in the presence of hemoCD1 (2-10 μM) and sodium dithionite (1 mg). Tissue homogenates were first sonicated, then samples were centrifuged, and the supernatants filtered before measurements by UV-VIS absorption spectroscopy. The concentration of CO was calculated from the absorbances at 422 and 434 nm using a reported equation (Kitagishi et al, 2010; Braud et al 2018 [13]). • b) Results

[3] = Levels of blood carbon monoxide hemoglobin (COHb) after oral administration
Description: The levels of COHb (carbon monoxide bound to hemoglobin) were measured at different time points after oral administration of CORM-401 in two groups of eight-week-old male C57BL6 mice that were fed either a standard diet (SD) or a high fat diet (HFD) for 14 weeks (n=9-10 per group). CORM-401 was freshly prepared in phosphate buffer solution (PBS) and administered orally at a dose of 30 mg/kg=90 μmoles/kg (n=6) and COHb in blood was measured after 1, 6, 24 and 48 hours. • b) Results

[4] = HFD + CORM, faeces after 14 weeks, 30 mg/kg orally three times a week, average of 3
[5] = HFD mice treated 14 weeks, 30 mg/kg orally three times a week

CN(CC(=O)O)C(=S)[S-].[C-]#[O+].[C-]#[O+].[C-]#[O+].[C-]#[O+].[Mn] [CORM-401]
Abundance of Adlercreutzia equolifaciens [1, 4]: 4445 number of sequences | Abundance of Aerococcus viridans [1, 4]: 1650 number of sequences | Abundance of Akkermansia muciniphila [1, 4]: 120300 number of sequences | Abundance of Alistipes finegoldii [1, 4]: 6727 number of sequences | Abundance of Alistipes shahii [1, 4]: 9490 number of sequences | Abundance of Bacteroides caecimuris [1, 4]: 14812 number of sequences | Abundance of Bacteroides cellulosilyticus [1, 4]: 246 number of sequences | Abundance of Bacteroides dorei [1, 4]: 3093 number of sequences | Abundance of Bacteroides fragilis [1, 4]: 3651 number of sequences | Abundance of Bacteroides xylanisolvens [1, 4]: 1151 number of sequences | Abundance of Barnesiella viscericola [1, 4]: 350 number of sequences | Abundance of Blautia sp. YL58 [1, 4]: 934 number of sequences | Abundance of Burkholderiales bacterium YL45 [1, 4]: 159 number of sequences | Abundance of Carnobacterium divergens [1, 4]: 1726 number of sequences | Abundance of Clostridioides difficile [1, 4]: 1101 number of sequences | Abundance of Clostridium bolteae [1, 4]: 3559 number of sequences | Abundance of Enterococcus faecalis [1, 4]: 4655 number of sequences | Abundance of Enterococcus faecium [1, 4]: 7750 number of sequences | Abundance of Erysipelotrichaceae bacterium I46 [1, 4]: 1788 number of sequences | Abundance of Faecalibacterium prausnitzii [1, 4]: 3622 number of sequences | Abundance of Faecalibaculum rodentium [1, 4]: 120296 number of sequences | Abundance of Faecalitalea cylindroides [1, 4]: 1039 number of sequences | Abundance of Flavonifractor plautii [1, 4]: 7720 number of sequences | Abundance of Intestinimonas butyriciproducens [1, 4]: 2426 number of sequences | Abundance of Lachnoclostridium phocaeense [1, 4]: 2366 number of sequences | Abundance of Lachnoclostridium sp. YL32 [1, 4]: 14254 number of sequences | Abundance of Lactobacillus acidipiscis [1, 4]: 630 number of sequences | Abundance of Lactobacillus agilis [1, 4]: 2223 number of sequences | Abundance of Lactobacillus animalis [1, 4]: 1355 number of sequences | Abundance of Lactobacillus fermentum [1, 4]: 10256 number of sequences | Abundance of Lactobacillus gallinarum [1, 4]: 928 number of sequences | Abundance of Lactobacillus gasseri [1, 4]: 61826 number of sequences | Abundance of Lactobacillus helveticus [1, 4]: 2955 number of sequences | Abundance of Lactobacillus johnsonii [1, 4]: 162300 number of sequences | Abundance of Lactobacillus murinus [1, 4]: 4440 number of sequences | Abundance of Lactobacillus plantarum [1, 4]: 1011 number of sequences | Abundance of Lactobacillus reuteri [1, 4]: 339700 number of sequences | Abundance of Lactobacillus ruminis [1, 4]: 2160 number of sequences | Abundance of Lactobacillus salivarius [1, 4]: 3546 number of sequences | Abundance of Lactococcus garvieae [1, 4]: 3953 number of sequences | Abundance of Lactococcus lactis [1, 4]: 642300 number of sequences | Abundance of Lactococcus piscium [1, 4]: 4133 number of sequences | Abundance of Libanicoccus massiliensis [1, 4]: 4193 number of sequences | Abundance of Listeria monocytogenes [1, 4]: 2783 number of sequences | Abundance of Mordavella sp. Marseille-P3756 [1, 4]: 1240 number of sequences | Abundance of Muribaculum intestinale [1, 4]: 21500 number of sequences | Abundance of Olsenella sp. Marseille-P2300 [1, 4]: 4915 number of sequences | Abundance of Olsenella uli [1, 4]: 1483 number of sequences | Abundance of Olsenella umbonata [1, 4]: 1620 number of sequences | Abundance of Oscillibacter valericigenes [1, 4]: 1053 number of sequences | Abundance of Parabacteroides goldsteinii [1, 4]: 43 number of sequences | Abundance of Romboutsia ilealis [1, 4]: 21923 number of sequences | Abundance of Roseburia intestinalis [1, 4]: 1190 number of sequences | Abundance of Ruminiclostridium sp. KB18 [1, 4]: 18969 number of sequences | Abundance of Streptococcus thermophilus [1, 4]: 7718 number of sequences | Abundance of uncultured Firmicutes bacterium [1, 4]: 1355 number of sequences | Change in the abundance of Alistipes fingoldii [1, 5]: marked increase | Change in the abundance of Alistipes shahii [1, 5]: marked increase | Change in the abundance of Olsenella uli [1, 5]: marked increase | Change in the abundance of Olsenella umbonata [1, 5]: marked increase | Change in the abundance of Romboutsia ilealis [1, 5]: decrease | Rank of Akkermansia muciniphila in the intestinal bacteria profile [1, 5]: among the most dominant species | Overall effect on the intestinal microbiota ([1]; HFD mice, oral administration): reshapes the intestinal microbiota HFD mice towards a healthy phenotype | Time at which the maximum CO content was reached ([2]; all compartments (caecum, caecum content, colon, faeces)): 6 h | Time after which CO content returned to basal levels ([2]; all compartments): 48 h | CO accumulation (time-dependent) ([2]; caecum tissue, caecum content, colon and faeces, vs PBS control): significantly accumulated | COHb levels in blood ([3]; 1 hour after oral administration of 30 mg/kg, both SD-fed and HFD-fed mice): significantly increased | Period over which blood COHb gradually decreased to baseline levels ([3]; oral 30 mg/kg, SD-fed and HFD-fed mice): 48 h
